Experimental data: PubChem BioAssay (NCI)
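Following 48 hours of exposure in 96-well plates, responses at five concentrations were used to interpolate endpoints linearly. GI50: concentration for 50% inhibition of growth. TGI denotes the concentration required for complete inhibition of growth.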

Assays:
Experiment in all cases: NCI tumour cell line growth inhibition, 48 h
[1] = test system: HOP-92 NSCLC
[2] = test system: MALME-3M melanoma
[3] = test system: SF-539 CNS
[4] = test system: TK-10 renal
[5] = test system: A498 renal
[6] = test system: NCI-H460 lung
[7] = test system: HOP-62 NSCLC
[8] = test system: ACHN renal
[9] = test system: SW-620 colon
[10] = test system: SK-MEL-5 melanoma
[11] = test system: CAKI-1 renal
[12] = test system: SK-MEL-28 melanoma
[13] = test system: MOLT-4 leukemia
[14] = test system: MCF7 breast
[15] = test system: COLO 205 colon
[16] = test system: LOX IMVI melanoma
[17] = test system: PC-3 prostate
[18] = test system: U251 CNS
[19] = test system: DU-145 prostate
[20] = test system: A549 NSCLC
[21] = test system: SF-295 CNS
[22] = test system: SN12C renal
[23] = test system: SK-OV-3 ovarian
[24] = test system: HL-60(TB) leukemia
[25] = test system: NCI-H23 lung
[26] = test system: CCRF-CEM leukemia
[27] = test system: SNB-75 CNS
[28] = test system: HCT-15 colon
[29] = test system: UACC-257 melanoma
[30] = test system: IGROV1 ovarian
[31] = test system: HCT-116 colon
[32] = test system: SK-MEL-2 melanoma
[33] = test system: EKVX NSCLC
[34] = test system: HCC-2998 colon
[35] = test system: SR leukemia
[36] = test system: M14 melanoma
[37] = test system: K-562 leukemia
[38] = test system: RPMI-8226 leukemia
[39] = test system: T-47D breast
[40] = test system: UO-31 renal
[41] = test system: HS 578T breast
[42] = test system: RXF 393 renal
[43] = test system: SF-268 CNS
[44] = test system: OVCAR-8 ovarian
[45] = test system: MDA-MB-435
[46] = test system: KM12 colon
[47] = test system: UACC-62 melanoma
[48] = test system: BT-549 breast
[49] = test system: NCI/ADR-RES ovarian
[50] = test system: MDA-MB-231 breast
[51] = test system: SNB-19 CNS
[52] = test system: OVCAR-3 ovarian
[53] = test system: NCI-H522 lung
[54] = test system: OVCAR-4 ovarian
[55] = test system: HT29 colon
[56] = test system: NCI-H226 lung
[57] = test system: 786-0 renal
[58] = test system: OVCAR-5 ovarian

`C#CC#CC#CC#CC#CC#CC#CC#CC[C@@H]1OC[C@H](COC(=O)O[C@@H](C(=O)O[C@H]2C[C@@]3(O)[C@@H](OC(=O)c4ccccc4)[C@@H]4[C@]5(OC(C)=O)CO[C@@H]5C[C@H](O)[C@@]4(C)C(=O)[C@H](OC(C)=O)C(=C2C)C3(C)C)[C@@H](NC(=O)c2ccccc2)c2ccccc2)O1` gave a GI50 [1] greater than 18.5 µM, a TGI [1] greater than 25 µM and a GI50 [2] of 2.07 µM. The TGI [2] was greater than 25 µM, the GI50 [3] was 1.2 µM and the TGI [3] was greater than 25 µM. It also gave a GI50 [4] greater than 25 µM, a TGI [4] greater than 25 µM and a GI50 [5] of 1.39 µM. It also gave a TGI [5] greater than 23.5 µM, a GI50 [6] of 0.185 µM and a TGI [6] greater than 25 µM. The GI50 [7] was 5.13 µM, the TGI [7] was greater than 25 µM and the GI50 [8] was greater than 25 µM. It also gave a TGI [8] greater than 25 µM, a GI50 [9] of 0.819 µM and a TGI [9] greater than 25 µM. It also gave a GI50 [10] of 3.13 µM, a TGI [10] greater than 25 µM and a GI50 [11] of 5.85 µM. For the same compound, the TGI [11] was greater than 25 µM, the GI50 [12] was 3.88 µM and the TGI [12] was greater than 25 µM. For the same compound, the GI50 [13] was 1.85 µM, the TGI [13] was greater than 25 µM and the GI50 [14] was 0.348 µM. It also gave a TGI [14] greater than 25 µM, a GI50 [15] of 0.665 µM and a TGI [15] greater than 10.8 µM. For the same compound, the GI50 [16] was 0.708 µM, the TGI [16] was greater than 25 µM and the GI50 [17] was 1.58 µM. The TGI [17] was greater than 25 µM, the GI50 [18] was 1.42 µM and the TGI [18] was greater than 25 µM. For the same compound, the GI50 [19] was 0.681 µM, the TGI [19] was greater than 25 µM and the GI50 [20] was 1.42 µM. For the same compound, the TGI [20] was greater than 25 µM, the TGI [21] was greater than 25 µM and the GI50 [22] was 4.36 µM. For the same compound, the TGI [22] was greater than 25 µM, the GI50 [23] was 3.32 µM and the TGI [23] was greater than 25 µM. It also gave a GI50 [24] of 0.819 µM, a TGI [24] greater than 18.7 µM and a GI50 [25] of 2.24 µM. It also gave a TGI [25] greater than 25 µM, a GI50 [26] of 1.25 µM and a TGI [26] greater than 25 µM. It also gave a GI50 [27] of 0.114 µM, a TGI [27] of 1.48 µM and a GI50 [28] greater than 25 µM. For the same compound, the TGI [28] was greater than 25 µM, the GI50 [29] was 6.61 µM and the TGI [29] was greater than 25 µM. For the same compound, the GI50 [30] was 1.29 µM, the TGI [30] was greater than 25 µM and the GI50 [31] was 0.596 µM. The TGI [31] was greater than 25 µM, the GI50 [32] was 5.65 µM and the TGI [32] was greater than 25 µM. It also gave a GI50 [33] greater than 25 µM, a TGI [33] greater than 25 µM and a GI50 [34] of 1.26 µM. The TGI [34] was greater than 25 µM, the GI50 [35] was 0.862 µM and the TGI [35] was greater than 25 µM. For the same compound, the GI50 [36] was 1.09 µM, the TGI [36] was 24.9 µM and the GI50 [37] was 1.04 µM. For the same compound, the TGI [37] was greater than 25 µM, the GI50 [38] was 0.436 µM and the TGI [38] was greater than 25 µM. For the same compound, the GI50 [39] was 1.07 µM, the TGI [39] was greater than 25 µM and the GI50 [40] was greater than 25 µM. For the same compound, the TGI [40] was greater than 25 µM, the GI50 [41] was 0.673 µM and the TGI [41] was greater than 25 µM. For the same compound, the GI50 [42] was greater than 5.16 µM, the TGI [42] was greater than 25 µM and the GI50 [43] was 1.93 µM. The TGI [43] was greater than 25 µM, the GI50 [44] was 1.57 µM and the TGI [44] was greater than 25 µM. It also gave a GI50 [45] of 0.0987 µM, a TGI [45] of 0.398 µM and a GI50 [46] of 0.683 µM. For the same compound, the TGI [46] was greater than 25 µM, the GI50 [47] was 5.58 µM and the TGI [47] was greater than 25 µM. The GI50 [48] was 3.71 µM, the TGI [48] was greater than 25 µM and the GI50 [49] was greater than 25 µM. For the same compound, the TGI [49] was greater than 25 µM, the GI50 [50] was 4.17 µM and the TGI [50] was greater than 25 µM. For the same compound, the GI50 [51] was 3.88 µM, the TGI [51] was greater than 25 µM and the GI50 [52] was 0.682 µM. The TGI [52] was greater than 25 µM, the GI50 [53] was 1.81 µM and the TGI [53] was greater than 25 µM. For the same compound, the GI50 [54] was greater than 21 µM, the TGI [54] was greater than 25 µM and the GI50 [55] was 0.355 µM. The TGI [55] was greater than 25 µM, the GI50 [56] was greater than 21.8 µM and the TGI [56] was greater than 25 µM. The GI50 [57] was greater than 25 µM, the TGI [57] was greater than 25 µM and the GI50 [58] was 1.58 µM. The TGI [58] was greater than 25 µM.
